In patent publication US20110319362A1, “STAT3 LIGANDS AND THERAPEUTIC USES THEREOF” (priority 2008, published 2011) one finds IC50 data, which are given here for ten compounds.

Assay [1] deals with MDA-MB-468 cancer cell line. The experiment in a line: Cell growth assay (WST-8). The class given is cell-based. The following applies: Homo sapiens, MDA-MB-468, 96 h; WST-8, 4 days; read-out: Inhibition of cell growth IC50, MDA-MB-468 cancer cell line. A digest of the protocol: (§1)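 Cells (3000–4000/well) grown 4 days with varied compound concentrations, then WST-8 dye added for 1–3 h and absorbance read at 450 nm. Growth inhibition expressed as sample-to-control absorbance ratio.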

Assay [2] has as its system MDA-MB-231 cancer cell line. The experiment in a line: Cell growth assay (WST-8). The class given is cell-based. The following applies: Homo sapiens, MDA-MB-231, 96 h; WST-8, 4 days; read-out: Inhibition of cell growth IC50, MDA-MB-231 cancer cell line. A digest of the protocol:
as §1
Background: Tetrazolium dyes change colour on reduction, which living cells bring about.

In a further assay the target is T1, STAT3 protein (Homo sapiens, UniProt P40763).
T1 construct: human STAT3 protein (residues 122-722) fused to His-tag; His-tag
Nature of the assay: In vitro competitive STAT3 binding assay (fluorescence polarization). The essentials: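 FP competition: His-tagged human STAT3 (122-722), 150 nM, with 5 nM 5-Fam-labelled pYLPQTV phosphopeptide tracer (STT2) and titrated inhibitor, read after 2-3 h. IC50 = concentration displacing 50% of tracer, by nonlinear least-squares fit.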
For orientation: Fluorescence polarisation rises when a labelled molecule tumbles more slowly, as on binding a larger partner.

Where [3] appears, read: FP competitive binding, fluorescently tagged STT2 peptide tracer, read-out: Binding affinities to STAT3 IC50.

Where two headings read alike, the source gives them in different places.

T1 sequence (P40763 122-722): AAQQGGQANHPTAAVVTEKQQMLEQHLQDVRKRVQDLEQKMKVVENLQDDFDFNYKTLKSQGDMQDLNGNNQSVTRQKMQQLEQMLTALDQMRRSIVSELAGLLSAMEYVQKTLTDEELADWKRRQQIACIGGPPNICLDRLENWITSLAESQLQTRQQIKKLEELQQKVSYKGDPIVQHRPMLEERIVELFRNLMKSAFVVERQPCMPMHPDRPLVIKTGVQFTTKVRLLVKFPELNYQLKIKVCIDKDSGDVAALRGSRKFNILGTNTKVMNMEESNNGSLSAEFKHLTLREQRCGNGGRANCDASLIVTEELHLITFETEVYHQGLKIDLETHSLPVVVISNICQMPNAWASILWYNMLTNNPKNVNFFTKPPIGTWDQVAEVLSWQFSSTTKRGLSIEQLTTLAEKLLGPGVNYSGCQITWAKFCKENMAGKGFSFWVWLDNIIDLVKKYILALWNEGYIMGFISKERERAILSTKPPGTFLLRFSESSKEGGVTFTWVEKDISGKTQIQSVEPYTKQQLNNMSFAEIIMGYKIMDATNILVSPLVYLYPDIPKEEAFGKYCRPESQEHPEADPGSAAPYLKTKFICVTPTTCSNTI

As a reminder, the IC50 is the concentration at which inhibition is half-maximal. Consider `CCCCCCCCCCCCCCCCNC(=O)[C@H](CCC(N)=O)NC(=O)[C@@H]1CC[C@@H]2CCCC[C@H](NC(=O)[C@H](Cc3ccc(OP(=O)(O)O)cc3)NC(=O)CCN3CCOCC3)C(=O)N21`, for which the values for the IC50 (in assay [1]; in assay [2]; at STAT3 protein) were < 40 µM, < 40 µM and < 5 µM, respectively.

For the compound `CNCCCNC(=O)[C@@H]1CC[C@@H]2CCCC[C@H](NC(=O)[C@H](Cc3ccc(OP(=O)(O)O)cc3)NC(=O)OCc3ccccc3)C(=O)N21` [Example 19], the figures for the IC50 (in assay [1]; in assay [2]; on STAT3 protein (setting [3])) were > 100 µM, > 100 µM and < 100 µM, respectively.

For the compound `CC(=O)N[C@@H](Cc1ccc(CP(=O)(O)O)cc1)C(=O)N[C@H]1CCCC[C@H]2CC[C@@H](C(=O)N[C@@H](CCC(N)=O)C(=O)NCc3ccccc3)N2C1=O` [Example 30], the IC50 is > 100 µM in assay [1], > 100 µM in assay [2] and < 30 µM on STAT3 protein.

Take `CCOC(=O)C(Oc1ccc(C[C@H](NC(C)=O)C(=O)N[C@H]2CCCCC3CC[C@@H](C(=O)N[C@@H](CCC(N)=O)C(=O)NCc4ccccc4)N3C2=O)cc1)C(=O)OCC` (stereo partly drawn): the IC50 in assay [1] was > 100 µM; in assay [2], > 30 µM; at STAT3 protein (setting [3]) it was > 100 µM.

`CCCCCCCCNC(=O)[C@H](CCC(N)=O)NC(=O)[C@@H]1CCC2CCCC[C@H](NC(=O)[C@H](Cc3ccc(OP(=O)(O)O)cc3)NC)C(=O)N21` (stereo partly drawn): the IC50 in assay [1] is > 100 µM; in assay [2], > 100 µM; at STAT3 protein (setting [3]) it was < 5 µM.

In the case of `NC(=O)CC[C@H](NC(=O)[C@@H]1CCC2CCNC[C@H](NC(=O)[C@@H](N)Cc3ccc(OP(=O)(O)O)cc3)C(=O)N21)C(=O)NCc1ccccc1` (stereo partly drawn), the IC50 is > 100 µM in assay [1], > 100 µM in assay [2] and < 100 µM on STAT3 protein.

For `CCCCCCCCCCCCCCCCN1CCN(CCC(=O)N[C@@H](Cc2ccc(OP(=O)(O)O)cc2)C(=O)N[C@H]2CCCCC3CC[C@@H](C(=O)NCCc4cn[nH]c4)N3C2=O)CC1` (stereo partly drawn), the IC50 in assay [1] is < 20 µM; in assay [2] it was < 20 µM; on STAT3 protein (setting [3]), < 5 µM.

As to `CN[C@@H](Cc1ccc(OC(C(=O)O)C(=O)O)cc1)C(=O)N[C@H]1CCCCC2CC[C@@H](C(=O)N[C@@H](CCCN)C(=O)NCc3ccccc3)N2C1=O` (stereo partly drawn), the IC50 is > 100 µM in assay [1], > 100 µM in assay [2] and > 10 µM on STAT3 protein (setting [3]).

Take `N[C@@H](Cc1ccc(CP(=O)(O)O)cc1)C(=O)N[C@H]1CCCC[C@H]2CC[C@@H](C(=O)N[C@@H](Cc3c[nH]cn3)C(=O)NCc3ccccc3)N2C1=O` [Example 26]: the IC50 in assay [1] was > 100 µM; in assay [2], > 100 µM; at STAT3 protein (setting [3]) it was > 10 µM.

`CC(=O)N[C@@H](Cc1ccc(O)cc1)C(=O)N[C@H]1CCCC[C@H]2CC[C@@H](C(=O)N[C@@H](CCC(N)=O)C(=O)NCc3ccccc3)N2C1=O` [Example 6]: the IC50 (in assay [1]; in assay [2]; at STAT3 protein (setting [3])) was > 100 µM each time.
